Patent publication US8628963B2, “Medium composition comprising neuropeptide Y for the generation, maintenance, prolonged undifferentiated growth of pluripotent stem cells and method of culturing pluripotent stem cell using the same” (Korea Research Institute of Bioscience and Biotechnology, priority 2009, dated 2014)
Entries after “also recorded” stand apart in the source; their conditions may differ.

What was measured:
[1] = tested on: human embryonic stem cells; experiment: Feeder-free culture: maintenance of undifferentiated state (morphology, ALP staining, hESC markers); format: cell-based; details: 3 μM antagonist in NPY medium
Protocol: Each experiment was carried out at least three times. […] Error bars represent standard error of the mean (n=3).

phospho-AKT in H9 cells = experiment: Western blot of NPY signalling: AKT phosphorylation; format: cell-based, human; details: 1 μM NPY
Protocol: (§1) The membranes were probed with the indicated antibodies, and β-actin was used as a loading control. For protein quantification, the blots were scanned, and the bands were quantified using densitometry (a-c, lower panels). The data are presented as the mean±SE (n=3). **p<0.01, *p<0.05, by t-test.
(§2) The supernatant was re-centrifuged for 10 min, and protein concentrations determined using the BCA protein assay kit (Pierce, Rockford, Ill.). Proteins (20 μg) were fractionated by SDS polyacrylamide gel electrophoresis (PAGE), and electrotransferred to polyvinylidene fluoride (PVDF) membranes (Millipore Corp, Bedford, Mass.). Membranes were blocked in PBS containing 0.1% Tween-20 and 5% non-fat milk for 2 hrs at room temperature, and probed with primary antibodies diluted in PBS/0.2% BSA for 1 hr. After washing, membranes were incubation with the corresponding secondary anti-rabbit HRP-conjugated or anti-mouse HRP-conjugated antibodies (Amersham, Arlington Heights, Ill.), and the bands were visualized using the ECL Advance kit (Amersham). Bands were analyzed for density with Image Gauge software (Fuji Photo Film GMBH, D) and normalized to loading control (β-actin) bands. All experiments were performed in triplicate. Error bars represent standard error of the mean (n=3).

[2] = tested on: phospho-ERK1/2 in H9 cells; experiment: Western blot of NPY signalling: ERK1/2 phosphorylation; format: cell-based, human; details: 30 min pretreatment with receptor antagonist (3 μM in FIG. 11 legend), 1 μM NPY
Protocol: as §1, §2

phospho-CREB in H9 cells = experiment: Western blot / immunohistochemistry of NPY signalling: CREB phosphorylation; format: cell-based, human; details: 1 μM NPY; for Effect on NPY-mediated CREB phosphorylation: pretreatment with kinase inhibitor, inhibition appeared incomplete
Protocol: as §1
For immunostaining, cells were plated on matrigel-coated 4-well Lab-Tek chamber slides (Nunc, Naperville, Ill.) and cultured for 5 days under described conditions. […] Cells were incubated for 2 hrs at 4° C. with respective primary antibodies diluted in PBS/0.2% BSA. After washing, cells were incubated with FITC- or Alexa 594-conjugated secondary antibodies (Invitrogen) in PBS/0.2% BSA for 1 hr at room temperature. Cells were counterstained using 10 μg/ml DAPI (4′,6-diamidino-2-phenylindole). Chamber slides were analyzed by an Olympus microscope or Axiovert 200M microscope (Carl Zeiss, Gottingen, Germany).
as §2

H9 hESCs = experiment: BrdU incorporation (hESC proliferation); format: cell-based, human; details: inhibitor 10 μM (FIG. 4b), NPY medium
Protocol: The proliferation rate of H9 hESCs cultured using the indicated media was measured using BrdU incorporation. […] Upper panels: representative images of BrdU+ cells. Bar=100 μm. Lower panels: Quantification of BrdU+ cells. The relative number of BrdU+ cells per field of vision was quantified and is presented as the percentage of the total number of cells counted.
Human embryonic stem cells were grown on matrigel-coated 4-well LabTec chamber slides for 4 days for the 5-bromo-2-deoxyuridine (BrdU; BD Pharmingen, San Diego) incorporation assays.
For BrdU incorporation, the cells were incubated in the presence of 30 μM BrdU for 1 hr at 37° C. […] After washing, the cells were incubated with the anti-BrdU antibody in PBS supplemented with 3% BSA for 1 hr, and then incubated with a FITC-conjugated secondary antibody (Invitrogen) for 30 min. The nuclei were stained with DAPI and examined using an Olympus microscope. The mean number of BrdU+ cells per field of vision was determined. At least four fields of vision per coverslip were counted.

H9 cells = experiment: Growth efficiency test (cell number); format: cell-based, human; details: TGFβ addition (1 ng/ml) to N2/B27 medium with NPY, compared with MEF-CM and UM supplemented with NPY
Protocol: Comparison of the growth efficiency of H9 cells cultured using the indicated media for 6 days by measuring the cell number as described in Materials and Methods. The data are presented as the mean±SE (n=3). **p<0.01, *p<0.02, by t-test.
hESC clumps (100×100 μm; approximately 70-90 cells per clump) was seeded evenly on a 35 mm culture dish coated with Matrigel in a final volume of 2 ml. The cells were plated to a cell density of approximately 5×10^5 cells per 35 mm culture dish. The plated cells were allowed to grow for 6 days under described culture conditions. To determine the number of cells, the cells were washed with PBS and trypsinized. The cell suspension was mixed with a 0.4% (wt/vol) trypan blue solution, and the number of live cells was determined using a hemocytometer. Each trial was performed in triplicate.

NC(N)=NCCC[C@@H](NC(=O)C(c1ccccc1)c1ccccc1)C(=O)NCc1ccc(O)cc1 [BIBP3226]
Maintenance of undifferentiated state in NPY medium in presence of antagonist (morphology; ALP, OCT4, SOX2, hTERT, TDGF) [1]: fail to maintain in an undifferentiated state; also recorded: loss of undifferentiated human embryonic stem cells
Effect on NPY-mediated AKT activation (phospho-AKT in H9 cells; 30 min pretreatment with receptor antagonist (3 μM in FIG. 11 legend)): significantly reduced
Effect on NPY-mediated ERK activation [2]: significantly reduced
Effect on NPY-mediated up-regulation of p-CREB (phospho-CREB in H9 cells; pretreatment with receptor antagonist): partially blocked

O=S(=O)(NCCNC/C=C/c1ccc(Br)cc1)c1cccc2cnccc12 [H89]
Effect on NPY-stimulated BrdU incorporation (H9 hESCs): potent in suppressing NPY-stimulated BrdU incorporation
Effect on NPY-mediated CREB phosphorylation (phospho-CREB in H9 cells): blocked

N#CC(=C(/N)Sc1ccccc1N)/C(C#N)=C(\N)Sc1ccccc1N [U0126]
Effect on NPY-stimulated BrdU incorporation (H9 hESCs): potent in suppressing NPY-stimulated BrdU incorporation
Effect on NPY-mediated AKT activation (phospho-AKT in H9 cells; pretreatment with kinase inhibitor (10 μM in FIG. 12 legend)): inhibited
Effect on NPY-mediated CREB phosphorylation (phospho-CREB in H9 cells): blocked

TGFβ
Effect on growth efficiency (cell number) (H9 cells): did not affect the growth efficiency
